In patent US20250304537A1 (Repare Therapeutics Inc., priority 2022, published 2025):
Like-named read-outs stand apart in the source and are kept apart here.

Experiments:
[1] = biological target: recombinant human Myt1 (full length PKMYT1) (Homo sapiens (Human), UniProt Q99640); assay: Recombinant human Myt1 kinase assay (ADP-Glo); format: biochemical; conditions: 10 μM ATP
Experimental: Detection of Myt1 kinase activity utilized a recombinant human Myt1 kinase assay measuring the hydrolysis of ATP using a commercially available ADP-Glo Assay (ADP-Glo™ Kinase Assay from Promega, 10 000 assays, #V9102). Briefly, 5 μL recombinant human Myt1 (full length PKMYT1 recombinant human protein expressed in insect cells from Thermo Fisher #A33387; ˜80% purity) was prepared in reaction buffer (70 mM HEPES, 3 mM MgCl2, 3 mM MnCl2, 50 μg/ml PEG 20000, 3 μM Na-orthovanadate, 1.2 mM DTT) and added to 384 well white polystyrene, flat bottom well, non-treated, microplate (Corning #3572). After this, 5 μL of compounds (diluted in reaction buffer to 0.5% DMSO) was added to the microplate and the plate was spun briefly and incubated at 22° C. for 15 minutes. Ultra-Pure Adenosine Triphosphate (ATP) solution (ADP-Glo kit from Promega) was diluted in reaction buffer and 5 μL was added to the microplate, spun down briefly and incubated for 60 minutes at 30° C. The final Myt1 enzyme concentration was 18 nM and the final ATP concentration was 10 μM. After the 60-minute incubation, 15 μL of ADP-Glo reagent was added and the plate was spun briefly and sealed and incubated in the dark for 40 minutes at 22° C. Following this, 30 μL of kinase detection reagent was added per well and the plate was spun briefly, sealed and incubated for 45-60 minutes at 22° C. in the dark. Luminescence was read using the Envision (250 ms integration). The IC50 and the % max inhibition were calculated for each inhibitor compound tested.

[2] = system: PKMYT1 (CDK1 pThr14) in FUOV1 cells; assay: PKMYT1 cell-based activity assay, CDK1 pThr14 AlphaLISA in FUOV1 cells; conditions: 2 h, read-out: FUOV-1 CDK1 pThr14 IC50
In short: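 IC50 was derived from AlphaLISA signal (excitation 680 nm, emission 615 nm) for phospho-Thr14 CDK1 in lysates. The detection antibodies were rabbit anti-pThr14 and mouse anti-total CDK1, each at 5 nM. FUOV1 ovarian cells were exposed to compound for 2 hours before lysis.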

recombinant human Myt1 (full length PKMYT1), sequence (Q99640 whole entry): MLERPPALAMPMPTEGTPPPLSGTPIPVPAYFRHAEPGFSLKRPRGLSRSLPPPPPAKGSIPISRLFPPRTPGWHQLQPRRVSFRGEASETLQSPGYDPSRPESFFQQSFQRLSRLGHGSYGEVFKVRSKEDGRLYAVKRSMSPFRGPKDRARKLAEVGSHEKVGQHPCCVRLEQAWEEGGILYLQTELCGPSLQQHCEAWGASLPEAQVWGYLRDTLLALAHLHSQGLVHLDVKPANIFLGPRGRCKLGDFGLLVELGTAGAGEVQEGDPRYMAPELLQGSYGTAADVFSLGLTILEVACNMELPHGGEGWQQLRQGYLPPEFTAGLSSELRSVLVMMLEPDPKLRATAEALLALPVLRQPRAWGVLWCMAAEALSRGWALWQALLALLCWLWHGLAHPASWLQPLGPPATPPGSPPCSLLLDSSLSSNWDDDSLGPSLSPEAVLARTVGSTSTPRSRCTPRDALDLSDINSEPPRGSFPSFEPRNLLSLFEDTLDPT

Compound	IC50 [1] [nM]	also measured
Cc1ccc(O)c(C)c1-c1cc(-c2cc3ccccc3n2C)nc(C(N)=O)c1N [Compound 46]	62	–
Cc1ccc2[nH]ncc2c1-c1cc(-c2ccnc(N3CCCC3CO)n2)nc(C(N)=O)c1N (stereo not shown) [Compound 373]	20	–
Cc1ccc(O)cc1-c1nc(-c2ccc(F)c(Cl)c2)nc(C(N)=O)c1N [Compound 28]	45	–
Cc1ccc(O)cc1-c1nc(-c2ccn(C)n2)nc(C(N)=O)c1N [Compound 35]	167	–
COc1ccccc1COc1cccc(-c2cc(-c3c(C)ccc4[nH]ncc34)c(N)c(C(N)=O)n2)n1 [Compound 181]	103	–
Cc1ccc2[nH]ncc2c1-c1cc(-c2ccnc(OCCc3cccnc3)n2)nc(C(N)=O)c1N [Compound 272]	12	–
Cc1ccc2[nH]ncc2c1-c1cc(-c2cccc(O[C@@H](C)c3ncccn3)n2)nc(C(N)=O)c1N [Compound 253]	55	–
Cc1ccc2[nH]ncc2c1-c1nc(-c2cccc3c2NCC3)nc(C(N)=O)c1N [Compound 386]	29	–
Cc1ccc2[nH]ncc2c1-c1nc(-c2cccc(CNc3ncc(C(F)(F)F)cn3)c2)nc(C(N)=O)c1N [Compound 296]	213	–
COc1ccc(COc2cccc(-c3cc(-c4c(C)ccc5[nH]ncc45)c(N)c(C(N)=O)n3)n2)cc1 [Compound 339]	1160	–
Cc1ccc(O)cc1-c1nc(-c2cccc(F)n2)nc(C(N)=O)c1N [Compound 5]	25	–
Cc1ccc2[nH]ncc2c1-c1nc(-c2cccc(CN(C)C)c2)nc(C(N)=O)c1N [Compound 291]	25	–
Cc1ccc2[nH]ncc2c1-c1cc(-c2ccnc(N3CC[C@@H](O)C3)n2)nc(C(N)=O)c1N [Compound 347]	18	–
Cc1ccc2[nH]ncc2c1-c1nc(-c2ccc3cnn(C)c3c2)nc(C(N)=O)c1N [Compound 119]	25	–
Cc1ccc2[nH]ncc2c1-c1nc(-c2ccc(CN3CCOCC3)s2)nc(C(N)=O)c1N [Compound 156]	17	–
Cc1ccc2[nH]ncc2c1-c1nc(-c2cccc(CC#N)c2)nc(C(N)=O)c1N [Compound 281]	8	–
Cc1ccc2[nH]ncc2c1-c1nc(-c2cc(F)c(F)cc2NC2CN(C(=O)OC(C)(C)C)C2)nc(C(N)=O)c1N [Compound 479]	> 2000	–
Cc1ccc2[nH]ncc2c1-c1cc(-c2ccnc(OCCOCCN(C)C)n2)nc(C(N)=O)c1N [Compound 192]	25	–
Cc1ccc2[nH]ncc2c1-c1cc(-c2ccnc(NCCCO)n2)nc(C(N)=O)c1N [Compound 343]	20	–
Cc1ccc2[nH]ncc2c1-c1nc(-c2ccccc2N)nc(C(N)=O)c1N [Compound 319]	48	–

Compound	IC50 [1] [nM]	also measured
CO[C@H](COc1cccc(-c2cc(-c3c(C)ccc4[nH]ncc34)c(N)c(C(N)=O)n2)n1)C1CC1 (atropisomer, axis not shown) [Compound 364]	8	–
Cc1ccc(O)cc1-c1nc(-c2ccc(N3CCOCC3)cc2)nc(C(N)=O)c1N [Compound 37]	42	–
Cc1ccc2[nH]ncc2c1-c1nc(-c2ccc(OC3CC3)cc2)nc(C(N)=O)c1N [Compound 127]	120	–
Cc1csc(-c2nc(C(N)=O)c(N)c(-c3c(C)ccc4[nH]ncc34)n2)c1 [Compound 148]	69	–
Cc1ccc(O)cc1-c1c(Cl)c(C(N)=O)nc2ccccc12 [Compound 73, 3-chloro-4-(5-hydroxy-2-methylphenyl)quinoline-2-carboxamide]	> 50	–
Cc1ccc(O)c(C)c1-c1cc(C(=O)O)nc(C(N)=O)c1N [Compound 53, 5-amino-6-carbamoyl-4-(3-hydroxy-2,6-dimethylphenyl)picolinic acid]	1830	–
Cc1ccc2[nH]ncc2c1-c1nc(-c2cccc(C(F)(F)F)c2)nc(C(N)=O)c1N [Compound 112]	100	–
Cc1ccc2[nH]ncc2c1-c1cc(-c2cccc(OCCN3CCN(C)CC3)n2)nc(C(N)=O)c1N [Compound 307]	25	–
Cc1cnc(-c2nc(C(N)=O)c(N)c(-c3cc(O)ccc3C)n2)s1 [Compound 9]	44	–
Cc1ccnc(-c2cc(-c3c(C)ccc4[nH]ncc34)c(N)c(C(N)=O)n2)c1 (atropisomer, axis not shown) [Compound 280]	11	–
Cc1ccc2[nH]ncc2c1-c1cc(-c2ccnc(N[C@@H]3c4ccccc4C[C@@H]3O)n2)nc(C(N)=O)c1N (atropisomer, axis not shown) [Compound 384]	4	–
Cc1ccc2[nH]ncc2c1-c1nc(-c2ccc(N3CCOCC3)c(C(F)(F)F)c2)nc(C(N)=O)c1N [Compound 157]	904	–
CCS(=O)(=O)c1ccccc1-c1nc(C(N)=O)c(N)c(-c2c(C)ccc3[nH]ncc23)n1 [Compound 800]	1010	–
Cc1ccc2[nH]ncc2c1-c1cc(-c2cccc(OC(C)c3ccccn3)n2)nc(C(N)=O)c1N (stereo not shown) [Compound 252]	26	–
Cc1ccc2[nH]ncc2c1-c1cc(-c2ccnc(N3CCCC(O)C3)n2)nc(C(N)=O)c1N (stereo not shown) [Compound 367]	9	–
Cc1ccc2[nH]ncc2c1-c1cc(C(N)=O)nc(-c2ccccc2)n1 [Compound 76, 6-(5-methyl-1H-indazol-4-yl)-2-phenylpyrimidine-4-carboxamide]	> 2000	–
NC(=O)c1nc(-c2ccnnc2)cc(-c2c(Cl)ccc3[nH]ncc23)c1N [Compound 106]	28	–
Cc1ccc2[nH]ncc2c1-c1cc(-c2ccnc(OCCc3ncccn3)n2)nc(C(N)=O)c1N (atropisomer, axis not shown) [Compound 330]	88	–
COCCCNc1ncccc1-c1nc(C(N)=O)c(N)c(-c2c(C)ccc3[nH]ncc23)n1 [Compound 537]	–	IC50 ([2]; 2 h compound incubation): 256 nM
Cc1cccc(-c2nc(C(N)=O)c(N)c(-c3c(C)ccc4[nH]ncc34)n2)c1Nc1ncccn1 [Compound 774]	–	IC50 ([2]; 2 h compound incubation): 563 nM

Compound	IC50 [1] [nM]	also measured
Cc1ccc2[nH]ncc2c1-c1nc(-c2ccc(F)nc2Nc2cccnc2F)nc(C(N)=O)c1N [Compound 917]	–	IC50 ([2]; 2 hours with compound): 203 nM
Cc1ccc2[nH]ncc2c1-c1nc(-c2cnccc2NCC(F)(F)F)nc(C(N)=O)c1N [Compound 520, 5-amino-6-(5-methyl-1H-indazol-4-yl)-2-(4-((2,2,2-trifluoroethyl)amino)pyridin-3-yl)pyrimidine-4-carboxamide]	–	IC50 ([2]; 2 h compound incubation): 27 nM
Cc1ccc2[nH]ncc2c1-c1nc(-c2cc(F)c(F)cc2NC2COC2)nc(C(N)=O)c1N [Compound 497]	–	IC50 ([2]; 2 h compound incubation): 52 nM
Cc1ccc2[nH]ncc2c1-c1nc(-c2cccnc2Nc2cccc(S(N)(=O)=O)c2)nc(C(N)=O)c1N [Compound 631]	–	IC50 ([2]; 2 h compound incubation): 96 nM
Cc1ccnc(Nc2cc(F)ccc2-c2nc(C(N)=O)c(N)c(-c3c(C)ccc4[nH]ncc34)n2)n1 [Compound 534]	–	IC50 ([2]; 2 h compound incubation): 87 nM
Cc1ccc2[nH]ncc2c1-c1nc(-c2ccc(F)cc2NS(C)(=O)=O)nc(C(N)=O)c1N [Compound 512]	–	IC50 ([2]; 2 h compound incubation): 52 nM
Cc1ccc2[nH]ncc2c1-c1nc(-c2cccnc2NC2(C)CCOCC2)nc(C(N)=O)c1N [Compound 544]	–	IC50 ([2]; 2 h compound incubation): 6 nM
Cc1ccc2[nH]ncc2c1-c1nc(-c2ccc(F)cc2Nc2ccncc2C#N)nc(C(N)=O)c1N [Compound 590]	–	IC50 ([2]; 2 h compound incubation): 8 nM
Cc1ccc2[nH]ncc2c1-c1nc(-c2ccc(F)cc2Nc2ccnc(C3CC3)n2)nc(C(N)=O)c1N [Compound 940]	–	IC50 ([2]; 2 hours with compound): 269 nM
Cc1ccc2[nH]ncc2c1-c1nc(-c2ccc(F)cc2Nc2cccnc2C#N)nc(C(N)=O)c1N [Compound 674]	–	IC50 ([2]; 2 h compound incubation): 27 nM
Cc1ccc2[nH]ncc2c1-c1nc(-c2cccnc2NC2CC2)nc(C(N)=O)c1N [Compound 914, 5-amino-2-(2-(cyclopropylamino)pyridin-3-yl)-6-(5-methyl-1H-indazol-4-yl)pyrimidine-4-carboxamide]	–	IC50 ([2]; 2 hours with compound): 54 nM
Cc1ccc2[nH]ncc2c1-c1nc(-c2ccc(C#N)cc2Nc2ncccc2F)nc(C(N)=O)c1N [Compound 739]	–	IC50 ([2]; 2 h compound incubation): 9 nM
[2H]C([2H])([2H])c1ccc2[nH]ncc2c1-c1nc(-c2cccnc2NC23CC(C(=O)OC)(C2)C3)nc(C(N)=O)c1N [Compound 961, methyl 3-((3-(5-amino-4-carbamoyl-6-(5-(methyl-d3)-1H-indazol-4-yl)pyrimidin-2-yl)pyridin-2-yl)amino)bicyclo[1.1.1]pentane-1-carboxylate]	–	IC50 ([2]; 2 hours with compound): 223 nM
COc1ccc(F)c(Nc2nc(F)ccc2-c2nc(C(N)=O)c(N)c(-c3c(C)ccc4[nH]ncc34)n2)n1 [Compound 922]	–	IC50 ([2]; 2 hours with compound): 34 nM
CSc1nccc(Nc2cc(F)ccc2-c2nc(C(N)=O)c(N)c(-c3c(C)ccc4[nH]ncc34)n2)n1 [Compound 583]	–	IC50 ([2]; 2 h compound incubation): 122 nM
Cc1ccc2[nH]ncc2c1-c1nc(-c2cc(F)ccc2NS(=O)(=O)C(C)C)nc(C(N)=O)c1N [Compound 530]	–	IC50 ([2]; 2 h compound incubation): 59 nM
Cc1ccc2[nH]ncc2c1-c1nc(-c2ccc(F)cc2Nc2nncs2)nc(C(N)=O)c1N [Compound 579]	–	IC50 ([2]; 2 h compound incubation): 13 nM
Cc1ccc2[nH]ncc2c1-c1nc(-c2cc(F)ccc2NS(C)(=O)=O)nc(C(N)=O)c1N [Compound 491]	–	IC50 ([2]; 2 h compound incubation): 45 nM
